Values of other authors, collected in US12194065B2, “Methods and compositions to enhance metabolic detoxification systems” (Nature's Sunshine Products, Inc., priority 2017, dated 2025).

Tests used:
[1] = acute supplementation of 6 g, over 120 minutes, healthy individuals with normal plasma ADMA
eNOS = eNOS (Homo sapiens, UniProt P29474)
[2] = once produced through NOS

Chain of eNOS (P29474 2-1203): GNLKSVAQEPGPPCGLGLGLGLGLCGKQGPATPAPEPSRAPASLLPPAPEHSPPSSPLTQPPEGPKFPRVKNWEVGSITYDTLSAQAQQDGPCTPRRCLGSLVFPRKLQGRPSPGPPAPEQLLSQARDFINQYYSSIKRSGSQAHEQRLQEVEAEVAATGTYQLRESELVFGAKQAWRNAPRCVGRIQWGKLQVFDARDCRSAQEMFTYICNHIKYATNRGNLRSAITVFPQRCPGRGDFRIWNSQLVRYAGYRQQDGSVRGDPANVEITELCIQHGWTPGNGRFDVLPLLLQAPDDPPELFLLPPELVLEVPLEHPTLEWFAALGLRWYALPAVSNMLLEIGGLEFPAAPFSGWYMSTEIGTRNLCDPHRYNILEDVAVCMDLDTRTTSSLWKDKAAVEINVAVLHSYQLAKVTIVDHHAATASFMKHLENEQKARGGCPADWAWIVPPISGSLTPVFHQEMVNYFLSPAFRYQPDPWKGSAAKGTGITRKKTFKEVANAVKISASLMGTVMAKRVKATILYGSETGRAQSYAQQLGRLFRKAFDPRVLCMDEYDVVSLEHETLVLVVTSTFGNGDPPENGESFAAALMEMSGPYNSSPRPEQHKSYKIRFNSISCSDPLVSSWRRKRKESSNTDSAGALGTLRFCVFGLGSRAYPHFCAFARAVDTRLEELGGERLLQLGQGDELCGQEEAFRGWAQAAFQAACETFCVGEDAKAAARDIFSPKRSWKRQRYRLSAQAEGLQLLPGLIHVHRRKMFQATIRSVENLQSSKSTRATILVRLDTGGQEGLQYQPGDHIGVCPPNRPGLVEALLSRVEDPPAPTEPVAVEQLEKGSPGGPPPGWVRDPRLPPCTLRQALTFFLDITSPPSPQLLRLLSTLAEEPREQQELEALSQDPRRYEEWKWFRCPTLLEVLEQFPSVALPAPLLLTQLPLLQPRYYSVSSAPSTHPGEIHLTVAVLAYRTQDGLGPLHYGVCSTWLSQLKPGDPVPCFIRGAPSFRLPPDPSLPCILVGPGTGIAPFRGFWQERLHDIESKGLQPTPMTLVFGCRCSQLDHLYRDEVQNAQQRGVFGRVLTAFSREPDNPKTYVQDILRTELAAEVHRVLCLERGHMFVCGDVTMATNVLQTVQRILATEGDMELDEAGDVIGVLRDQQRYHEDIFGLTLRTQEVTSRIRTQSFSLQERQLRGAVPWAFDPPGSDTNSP

SMILES | plasma concentration of NOx [1] | concentration saturating eNOS (eNOS) | half-life [2]
N=C(N)NCCC[C@H](N)C(=O)O [L-arginine] | does not increase | approximately 3 μmol arginine/L | 
[N]=O [NO, Nitric oxide] |  |  | approximately 1 second
